The source of these data is patent publication US7247456B2, “Preparation of fucosylated oligosaccharides” (Neose Technologies, Inc., priority 1998, dated 2007).

“Also recorded” adds a separate entry of the source. Where two headings read alike, the source gives them in different places.

The target of data set [1] is T1, E. coli K12 GDP-mannose dehydratase (GDP-mannose 4,6-dehydratase, GMD), recombinant wild type from pTGK:GMD (Escherichia coli, UniProt P0AC88).
T1 construct: made in house; host or cells: E. coli JM101 (plasmid pTGK:GMD), supernatant of French press lysate
The data set is described as follows: Cofactor (NADP+) dependence of GDP-mannose dehydratase (Table 5). The class given is biochemical. The procedure:
(§1) C. Assay of GDP-Mannose Dehydratase
(§2) To assay GDP-mannose dehydratase activity, a reverse phase HPLC assay was developed. […] GDP-mannose dehydratase activity was determined by reacting GDP-mannose dehydratase extract with 480 nmole of GDP-mannose in 50 mM Tris pH 7.5, 0.15 mM NADP^+ (NADP^+ is absolutely required for GDP-mannose dehydratase activity) in a 100 μl reaction volume. Twenty μl of the assay mix was injected over the C18 column.
(§3) By comparing the peak area of the no enzyme control, corresponding to 200 nmole, the decrease in the peak area of GDP-mannose was used to directly measure the activity of GDP-mannose dehydratase by the following formulae: (No enzyme peak area)−(enzyme peak area)=(Peak area of GDP-mannose consumed) 1. (Peak area of GDP-mannose consumed)/(No enzyme peak area)=% of 200 nmole GDP-mannose consumed. 2.
(§4) To control for any carryover loss upon HPLC injection, 10 nmole of CTP was added to the sample to be analyzed.

Data set [2] deals with T1, E. coli K12 GDP-mannose dehydratase (GDP-mannose 4,6-dehydratase, GMD), recombinant wild type from pTGK:GMD. As to the kind of experiment: Linearity of the GDP-mannose dehydratase assay with time (product inhibition). It counts as biochemical. To be noted: linear up to 30 minutes, up to 90% of substrate consumed. How it is done:
as §1, §2, §3
Samples were thawed and immediately injected over an aquasil reverse phase HPLC column.

For data set [3], the target named is T2, GDP-mannose dehydratase (Escherichia coli, UniProt P0AC88).
T2 construct: made in house; host or cells: E. coli JM101 (plasmid pTGK:GMD), French-press lysate supernatant
As to the kind of experiment: GDP-mannose dehydratase reverse phase HPLC activity assay. It counts as biochemical, E. coli. The conditions noted are these: for effect on GDP-mannose dehydratase activity: concentrations ranging from 1-20 mM. The procedure:
(§5) To assay GDP-mannose dehydratase activity, a reverse phase HPLC assay was developed. […] […] Twenty μl of the assay mix was injected over the C18 column.
as §3, §4

For another data set, the target named is YEF B (Escherichia coli, UniProt P32055, E255D/L256V). The conditions noted are these: for YEF B Activity %: none = 100; for effect on YEF B activity: varying concentrations of metal ion. The procedure: To assay YEF B activity, a reverse phase HPLC assay was developed. An Aquesil C18 reverse phase column was set up in-line on a Beckman 126 solvent monitor. The column was eluted isocratically with 0.5M KH2PO4 over twenty minutes with a flow rate of 1 ml/min. A photodiode array detector was employed to monitor the elution scanning the 210-300 nm wavelength range.
A coupled assay was employed to assay YEF B activity. This was required since its substrate, GDP-4-keto-6-deoxymannose, is unstable and not commercially available. Twenty mUnit of GDP-mannose dehydratase was allowed to react with 480 nMole of GDP-mannose for 20 minutes under standard assay conditions as previously. […] The reaction was allowed to proceed for ten minutes at which point the reaction was stopped by freezing on dry ice. After thawing 10 μl aliquots were analyzed by reverse phase HPLC analysis. The amount of GDP fucose formed was calculated by analyzing a separate assay mix in the absence of GDP-mannose dehydratase to yield a 100% value for the absorption peak of GDP-mannose. […] to yield percentage of GDP-fucose formed. (% GDP-fucose)(nMole GDP-mannose in reaction)=nMole GDP-fucose formed.
The assay pH was varied from 6.5 to 8.0 using MES and Tris as buffers. The standard assay mix contained 20 mUnit GDP-mannose dehydratase, […] GDP-mannose, […], 10 mUnit glucose dehydrogenase (to recycle NADPH utilized by YEF B), 50 mM buffer at the appropriate pH and YEF B at appropriate dilution. The reaction was allowed to proceed for 15 minutes at 37° C. and immediately frozen on dry ice to stop the reaction. Ten μl aliquots were removed after thawing and analyzed by reverse phase HPLC.

For data set [4], the target named is T3, fucosyltransferase V (FT V) (Homo sapiens, UniProt Q11128).
T3 construct: printed for the preparative synthesis
T3 sequence (Q11128 1-374): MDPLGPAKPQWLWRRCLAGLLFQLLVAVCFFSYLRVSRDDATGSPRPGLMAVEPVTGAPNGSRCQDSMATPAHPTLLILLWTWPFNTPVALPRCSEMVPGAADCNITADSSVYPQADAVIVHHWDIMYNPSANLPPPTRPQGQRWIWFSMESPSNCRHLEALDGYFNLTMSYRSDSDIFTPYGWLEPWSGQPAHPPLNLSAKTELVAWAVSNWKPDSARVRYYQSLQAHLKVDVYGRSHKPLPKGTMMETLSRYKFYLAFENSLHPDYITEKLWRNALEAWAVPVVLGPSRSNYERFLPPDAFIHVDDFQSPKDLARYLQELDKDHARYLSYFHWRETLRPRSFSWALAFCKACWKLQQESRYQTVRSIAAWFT
As to the kind of experiment: Inhibition of fucosyltransferase V. It counts as biochemical. The conditions noted are these: compared with GDP.

A further data set addresses T4, fucosyltransferase V (Homo sapiens, UniProt Q11128).
T4 sequence (Q11128 1-374): T3 sequence (Q11128 1-374)
To be noted: literature statement; cited from earlier work.

Data set [5] has as its target T5, GDP-mannose dehydratase (Sus scrofa, UniProt F1RX12).
T5 sequence (F1RX12 1-372): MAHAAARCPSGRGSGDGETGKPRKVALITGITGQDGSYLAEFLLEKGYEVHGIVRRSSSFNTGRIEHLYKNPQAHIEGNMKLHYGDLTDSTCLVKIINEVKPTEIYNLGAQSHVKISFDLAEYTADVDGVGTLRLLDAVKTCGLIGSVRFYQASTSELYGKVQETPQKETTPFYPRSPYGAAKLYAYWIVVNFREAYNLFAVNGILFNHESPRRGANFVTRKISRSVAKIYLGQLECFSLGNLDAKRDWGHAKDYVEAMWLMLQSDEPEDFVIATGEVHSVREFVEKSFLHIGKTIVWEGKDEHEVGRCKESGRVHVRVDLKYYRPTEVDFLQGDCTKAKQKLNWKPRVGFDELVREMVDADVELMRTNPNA
The conditions noted are these: cited from earlier work.

Data set [6] has as its system GDP-mannose dehydratase. The conditions noted are these: cited from earlier work.
A further data set concerns fucosyltransferases. To be noted: cited from earlier work.
Data set [7] addresses T6, GDP-mannose dehydratase (Escherichia coli, UniProt P0AC88).
T6 construct: made in house; host or cells: E. coli JM101 (plasmid pTGK:GMD), French-press lysate supernatant
T6 sequence (P0AC88 whole entry, looked up): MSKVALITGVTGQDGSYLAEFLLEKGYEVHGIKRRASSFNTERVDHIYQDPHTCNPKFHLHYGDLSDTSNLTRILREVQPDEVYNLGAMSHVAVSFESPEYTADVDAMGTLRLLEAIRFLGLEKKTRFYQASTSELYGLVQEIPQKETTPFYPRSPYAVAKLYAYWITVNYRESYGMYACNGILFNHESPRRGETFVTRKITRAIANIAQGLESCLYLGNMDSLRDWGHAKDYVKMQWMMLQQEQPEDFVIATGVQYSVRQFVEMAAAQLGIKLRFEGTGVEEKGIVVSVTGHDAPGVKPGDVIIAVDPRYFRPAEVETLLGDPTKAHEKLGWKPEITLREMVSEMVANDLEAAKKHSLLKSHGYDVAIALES
As to the kind of experiment: GDP-mannose dehydratase reverse phase HPLC activity assay. It counts as biochemical, E. coli. To be noted: 10 mUnit alkaline phosphatase included in the assay. How it is done:
as §5, §3, §4

Data set [8] addresses T1, E. coli K12 GDP-mannose dehydratase (GDP-mannose 4,6-dehydratase, GMD), recombinant wild type from pTGK:GMD. The data set is described as follows: Inhibition of GDP-mannose dehydratase (GMD) by GDP-fucose, reverse phase HPLC assay (FIG. 5). It counts as biochemical. How it is done:
as §1, §2, §3, §4
Since GDP-mannose dehydratase represents the first committed step in GDP-fucose biosynthesis it is possible that GDP-fucose is a feedback inhibitor of the enzyme. To determine if this is true, the standard assay was performed in the presence of increasing amounts of GDP-fucose. […]

Sequence of YEF B (P32055 whole entry E255D/L256V): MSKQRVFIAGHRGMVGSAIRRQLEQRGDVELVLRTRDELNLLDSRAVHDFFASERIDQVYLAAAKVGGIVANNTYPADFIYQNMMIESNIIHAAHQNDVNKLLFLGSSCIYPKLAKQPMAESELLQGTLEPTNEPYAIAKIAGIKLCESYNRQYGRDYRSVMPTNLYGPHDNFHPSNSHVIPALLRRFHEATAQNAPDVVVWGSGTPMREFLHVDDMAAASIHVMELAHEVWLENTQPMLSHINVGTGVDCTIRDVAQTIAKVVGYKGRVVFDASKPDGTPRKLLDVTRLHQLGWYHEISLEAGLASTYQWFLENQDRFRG

Take `NC(=O)c1ccc[n+]([C@@H]2O[C@H](COP(=O)(O)OP(=O)(O)OC[C@H]3O[C@@H](n4cnc5c(N)ncnc54)[C@H](OP(=O)(O)O)[C@@H]3O)[C@@H](O)[C@H]2O)c1` [NADP, NADP^+]: the activity at 1000 µM in [1] (cofactor at 1 mM) turned out to be 100%.
As for `C[C@H]1O[C@H](OP(=O)(O)OP(=O)(O)OC[C@H]2O[C@@H](n3cnc4c(=O)[nH]c(N)nc43)[C@H](O)[C@@H]2O)[C@@H](O)[C@@H](O)C1=O` [GDP-4-keto-6 deoxymannose, GDP-4-keto-6-deoxymannose], in data set [2], the “inhibition of GDP-mannose dehydratase by the product” value is recorded as “does not inhibit the enzyme”.
Regarding `[Cl-].[Cl-].[Mg+2]` [MgCl2], the “% GDP-mannose Dehydratase Activity mUnit/ml” value on GDP-mannose dehydratase [3] (1 mM metal ion) was found to be 560 mUnit/ml; at GDP-mannose dehydratase [3] (10 mM metal ion), 610 mUnit/ml; on GDP-mannose dehydratase [3] (20 mM metal ion), 590 mUnit/ml. In addition, the “effect on GDP-mannose dehydratase activity” value on GDP-mannose dehydratase [3] is reported as “essentially no effect”. For the same compound, the “YEF B Activity %” value at YEF B (1 mM metal ion) and on YEF B (10 mM metal ion) was 110% throughout. Besides, the “effect on YEF B activity” value at YEF B was “somewhat stimulatory”.
As for `NC(=O)c1ccc[n+]([C@@H]2O[C@H](COP(=O)(O)OP(=O)(O)OC[C@H]3O[C@@H](n4cnc5c(N)ncnc54)[C@H](O)[C@@H]3O)[C@@H](O)[C@H]2O)c1` [NAD], the “% GDP-mannose dehydratase activity” value on GDP-mannose dehydratase [3] (1 mM cofactor) is recorded as “not detected”.
As for `[Cl][Mn][Cl]` [MnCl2], the results for the “% GDP-mannose Dehydratase Activity mUnit/ml” value at GDP-mannose dehydratase [3] (1 mM metal ion), on GDP-mannose dehydratase [3] (10 mM metal ion) and at GDP-mannose dehydratase [3] (20 mM metal ion) were 580 mUnit/ml, 570 mUnit/ml and 620 mUnit/ml, respectively. In addition, the “effect on GDP-mannose dehydratase activity” value on GDP-mannose dehydratase [3] is given as “essentially no effect”. Further, the “YEF B Activity %” value on YEF B (1 mM metal ion) came to 60%; at YEF B (10 mM metal ion) it was 25%. For the same compound, at YEF B, the “effect on YEF B activity” value was “severely inhibited in a dose dependent manner”.
`Nc1nc2c(ncn2[C@@H]2O[C@H](COP(=O)(O)OP(=O)(O)OP(=O)(O)O)[C@@H](O)[C@H]2O)c(=O)[nH]1` [GTP]: in [4], the “inhibitory potency relative to GDP (fold less potent)” value stood at 10 ×.
For `Nc1nc2c(ncn2[C@@H]2O[C@H](COP(=O)(O)OP(=O)(O)O)[C@@H](O)[C@H]2O)c(=O)[nH]1` [GDP], the values for the inhibition of fucosyltransferases entry at fucosyltransferase V and with fucosyltransferases were “inhibit; also recorded: potent inhibitor” and “known to inhibit”, respectively. The “inhibition of GDP-mannose dehydratase” value on GDP-mannose dehydratase [5] (literature statement) was “inhibit”; in the data set with GDP-mannose dehydratase [6], “known to inhibit”.
Consider `NC(=O)c1ccc[n+]([C@@H]2O[C@H](COP(=O)(O)OP(=O)(O)OC[C@H]3O[C@@H](n4cnc5c(N)ncnc54)[C@H](O)[C@@H]3O)[C@@H](O)[C@H]2O)c1` [NAD, NAD^+], for which, in data set [1] (cofactor at 1 mM), the “% GDP-mannose dehydratase activity” value is “not detected”. For the same compound, the “substitution for NADP+ as cofactor” value in data set [1] (in place of NADP+) was “will not substitute for NADP^+”.
In the case of Alkaline Phosphatase, the “% GDP-mannose dehydratase activity” value with GDP-mannose dehydratase [7] was “not detected”; with GDP-mannose dehydratase [7] (listed as alkaline phosphatase), “severely attenuated”.
As for `NC(=O)c1ccc[n+]([C@@H]2O[C@H](COP(=O)(O)OP(=O)(O)OC[C@H]3O[C@@H](n4cnc5c(N)ncnc54)[C@H](OP(=O)(O)O)[C@@H]3O)[C@@H](O)[C@H]2O)c1` [NADP], the “% GDP-mannose dehydratase activity” value on GDP-mannose dehydratase [3] (0.15 mM cofactor) and at GDP-mannose dehydratase [3] (1 mM cofactor) was 100% throughout.
For `C[C@H]1O[C@H](OP(=O)(O)OP(=O)(O)OC[C@H]2O[C@@H](n3cnc4c(=O)[nH]c(N)nc43)[C@H](O)[C@@H]2O)[C@@H](O)[C@@H](O)C1=O` [GDP-4-keto-6-deoxymannose], the “inhibition of GDP-mannose dehydratase by its product” value against GDP-mannose dehydratase [3] (assay linear up to 90% of substrate consumed) is “does not inhibit the enzyme”.
Turning to `C[C@@H]1O[C@H](OP(=O)(O)OP(=O)(O)OC[C@H]2O[C@@H](n3cnc4c(=O)[nH]c(N)nc43)[C@H](O)[C@@H]2O)[C@@H](O)[C@H](O)[C@@H]1O` [GDP-fucose], the IC50 in [8] (restated for the 0.2 kG scale production, quantity not given, read-out: inhibitor concentration ("40 μM inhibitor", see FIG. 5)) was 40 µM; in data set [8] (standard assay: 480 nmole GDP-mannose, 50 mM Tris pH 7.5, 0.15 mM NADP+, 100 μl, increasing amounts of GDP-fucose, read-out: IC50) it was roughly 40 µM. Also, the “catalytic activity of GDP-mannose dehydratase remaining” value on GDP-mannose dehydratase [5] (at 50 μM GDP-fucose) is on record as 10%. Also, in the data set on GDP-mannose dehydratase [6] (at 50 μM GDP-fucose), the “remaining catalytic activity of GDP-mannose dehydratase” value was 10%. In addition, the “inhibition of GDP-mannose dehydratase” value with GDP-mannose dehydratase [6] is “strongly inhibited”.
